Calls of active or inactive are those of the source. The rule behind the calls is not given here.
What was measured:
[1] = Cytotoxicity against human SH-SY5Y cells assessed as cell viability at 0.1 uM measured after 24 hrs by calcein-AM staining based fluorescence analysis; conditions: read-out: Activity
[2] = Cytotoxicity against human SH-SY5Y cells assessed as cell viability at 1 uM measured after 24 hrs by calcein-AM staining based fluorescence analysis; conditions: read-out: Activity
[3] = Cytotoxicity against human SH-SY5Y cells assessed as cell viability at 10 uM measured after 24 hrs by calcein-AM staining based fluorescence analysis; conditions: read-out: Activity
[4] = system: SH-SY5Y; experiment: Neuroprotective activity against glutamate-induced neurotoxicity in human SH-SY5Y cells assessed as cell death at 10 uM measured after 24 hrs by PI staining based assay (reference value: 100%); type: functional
[5] = system: SH-SY5Y; experiment: Inhibition of glutamate-induced oxidative stress in human SH-SY5Y cells assessed as superoxide radical formation at 10 uM measured after 4 hrs by DHE staining based fluorescence spectrophotometry (reference value: 100%); type: functional; set-up: scale not given: the % may be the effect or the level left
[6] = system: SH-SY5Y; experiment: Inhibition of glutamate-induced apoptosis in human SH-SY5Y cells assessed as caspase 3/7 activity at 10 uM incubated for 1 hr using Ac-DEVD-AMC as substrate by fluorescence analysis (reference value: 100%); type: functional; set-up: scale not given: the % may be the effect or the level left
[7] = system: SH-SY5Y; experiment: Inhibition of glutamate-induced oxidative stress in human SH-SY5Y cells assessed as reduction in superoxide radical formation at 10 uM measured after 4 hrs by DHE staining based fluorescence microscopy; type: functional, cell-based
[8] = system: SH-SY5Y; experiment: Neuroprotective activity against salsolinol-induced neurotoxicity in human SH-SY5Y cells assessed as cell viability at 1 uM measured after 24 hrs by calcein-AM staining based fluorescence analysis (reference value: 70.49 +/-0.51%); type: functional; conditions: read-out: Activity
[9] = system: SH-SY5Y; experiment: Neuroprotective activity against salsolinol-induced neurotoxicity in human SH-SY5Y cells assessed as reduction in cell death at 0.1 to 10 uM measured after 24 hrs by PI staining based analysis; type: functional; conditions: dose 0.1-10 µM
[10] = system: SH-SY5Y; experiment: Neuroprotective activity against salsolinol-induced neurotoxicity in human SH-SY5Y cells assessed as reduction in cell death at 0.1 to 1 uM measured after 24 hrs by PI staining based analysis; type: functional; conditions: dose 0.1-1 µM
[11] = system: SH-SY5Y; experiment: Neuroprotective activity against salsolinol-induced neurotoxicity in human SH-SY5Y cells assessed as cell death at 10 uM measured after 24 hrs by PI staining based analysis (reference value: 100%); type: functional
[12] = system: SH-SY5Y; experiment: Inhibition of Salsolinol-induced oxidative stress in human SH-SY5Y cells assessed as superoxide radical formation at 1 uM measured after 24 hrs by DHE staining based fluorescence spectrophotometry (reference value: 100%); type: functional; set-up: scale not given: the % may be the effect or the level left
[13] = system: SH-SY5Y; experiment: Inhibition of salsolinol-induced apoptosis in human SH-SY5Y cells assessed as caspase 3/7 activity at 1 uM incubated for 24 hrs using Ac-DEVD-AMC as substrate by fluorescence analysis (reference value: 100%); type: functional; set-up: scale not given: the % may be the effect or the level left
[14] = system: SH-SY5Y; experiment: Inhibition of salsolinol-induced apoptosis in human SH-SY5Y cells assessed as caspase 3/7 activity at 10 uM incubated for 24 hrs using Ac-DEVD-AMC as substrate by fluorescence analysis (reference value: 100%); type: functional; set-up: scale not given: the % may be the effect or the level left
[15] = Inhibition of salsolinol-induced mitochondrial depolarization in human SH-SY5Y cells assessed as mitochondrial membrane potential at 10 uM measured after 24 hrs by JC-1 staining based flow cytometry (reference value: 45.3 +/-2.09%); type: functional; set-up: scale not given: the % may be the effect or the level left
[16] = Inhibition of salsolinol-induced mPTP opening in human SH-SY5Y cells assessed as fold change in fluorescence intensity at 1 uM measured after 24 hrs by calcein AM/CoCl2 based fluorescence microscopic analysis (reference value: 0.49 +/-0.02); type: functional
[17] = Inhibition of salsolinol-induced mPTP opening in human SH-SY5Y cells assessed as fold change in fluorescence intensity at 10 uM measured after 24 hrs by calcein AM/CoCl2 based fluorescence microscopic analysis (reference value: 0.49 +/-0.02); type: functional
[18] = system: SH-SY5Y; experiment: Inhibition of salsolinol-induced apoptosis in human SH-SY5Y cells assessed as appearance of necrotic cells along with early and late apoptotic cells at 10 uM measured after 24 hrs by AO/PIstaining based fluorescence microscopy; type: functional, cell-based
[19] = Inhibition of glutamate-induced mitochondrial depolarization in human SH-SY5Y cells assessed as mitochondrial membrane potential at 10 uM incubated for 1 hr by JC10 dye based fluorescence analysis (reference value: 31.2 +/-4.6%); type: functional; set-up: scale not given: the % may be the effect or the level left
[20] = system: SH-SY5Y; experiment: Inhibition of Salsolinol-induced oxidative stress in human SH-SY5Y cells assessed as superoxide radical formation at 10 uM measured after 24 hrs by DHE staining based fluorescence spectrophotometry (reference value: 100%); type: functional; set-up: scale not given: the % may be the effect or the level left
[21] = system: SH-SY5Y; experiment: Inhibition of Salsolinol-induced oxidative stress in human SH-SY5Y cells assessed as reduction in superoxide radical formation at 1 uM measured after 24 hrs by DHE staining based fluorescence microscopy; type: functional, cell-based
[22] = system: SH-SY5Y; experiment: Inhibition of salsolinol-induced mitochondrial depolarization in human SH-SY5Y cells assessed as recovery of mitochondrial membrane potential measured after 24 hrs by JC-1 staining based flow cytometry; type: functional, cell-based
[23] = system: SH-SY5Y; experiment: Neuroprotective activity against glutamate-induced neurotoxicity in human SH-SY5Y cells assessed as reduction in cell death at 0.1 to 1 uM measured after 24 hrs by PI staining based assay; type: functional; conditions: dose 0.1-1 µM
[24] = system: SH-SY5Y; experiment: Neuroprotective activity against salsolinol-induced neurotoxicity in human SH-SY5Y cells assessed as cell viability at 0.5 uM measured after 24 hrs by calcein-AM staining based fluorescence analysis (reference value: 70.49 +/-0.51%); type: functional; conditions: read-out: Activity
[25] = system: SH-SY5Y; experiment: Neuroprotective activity against salsolinol-induced neurotoxicity in human SH-SY5Y cells assessed as cell death at 0.5 uM measured after 24 hrs by PI staining based analysis (reference value: 100%); type: functional
[26] = Inhibition of salsolinol-induced mPTP opening in human SH-SY5Y cells assessed as fold change in fluorescence intensity at 0.5 uM measured after 24 hrs by calcein AM/CoCl2 based fluorescence microscopic analysis (reference value: 0.49 +/-0.02); type: functional
[27] = system: SH-SY5Y; experiment: Inhibition of glutamate-induced apoptosis in human SH-SY5Y cells assessed as caspase 3/7 activity at 0.5 uM incubated for 1 hr using Ac-DEVD-AMC as substrate by fluorescence analysis (reference value: 100%); type: functional; set-up: scale not given: the % may be the effect or the level left

SMILES: C=C(C)[C@@H]1CC[C@]2(C(=O)O)CC[C@]3(C)[C@H](C=C[C@@H]4[C@@]5(C)Cc6sc(N7CCOCC7)nc6C(C)(C)[C@@H]5CC[C@]43C)[C@@H]12
- viability at 24 h, 0.1 µM [1]: 91.3%
- viability at 24 h, 1 µM [2]: 90%
- viability at 24 h, 10 µM [3]: 87%

SMILES: CC(=O)OC[C@H]1O[C@@H](n2cc(CO)nn2)[C@H](OC(C)=O)[C@@H](OC(C)=O)[C@H]1OC(C)=O
- viability at 24 h, 0.1 µM [1]: 109%
- viability at 24 h, 1 µM [2]: 107%
- viability at 24 h, 10 µM [3]: 100%

SMILES: CC(=O)N(O)CCCCCNC(=O)CCC(=O)N(O)CCCCCNC(=O)CCC(=O)N(O)CCCCCN [DEFEROXAMINE]
- Activity [4]: 79.5%
- Activity [5]: 87.2%
- Activity [6]: 77.4%
- inhibition [7]: inactive

SMILES: C=C(Cn1cc(-c2cccnc2)nn1)[C@@H]1CC[C@]2(C(=O)O)CC[C@]3(C)[C@H](CC[C@@H]4[C@@]5(C)CC[C@H](O)C(C)(C)[C@@H]5CC[C@]43C)[C@@H]12
- viability at 24 h, 0.1 µM [1]: 103%
- viability at 24 h, 1 µM [2]: 116%
- viability at 24 h, 10 µM [3]: 133%
- viability at 1 µM [8]: 81.7%
- Activity [9]: inactive

SMILES: C=C(Cn1cc(-c2cccnc2)nn1)[C@@H]1CC[C@]2(C(=O)O)CC[C@]3(C)[C@H](CC[C@@H]4[C@@]5(C)CC[C@H](OC(C)=O)C(C)(C)[C@@H]5CC[C@]43C)[C@@H]12
- viability at 24 h, 0.1 µM [1]: 106%
- viability at 24 h, 1 µM [2]: 124%
- viability at 24 h, 10 µM [3]: 57.6%
- viability at 1 µM [8]: 84.3%
- Activity [10]: inactive

SMILES: C=C(C(=O)OCc1cn([C@@H]2O[C@H](COC(C)=O)[C@@H](OC(C)=O)[C@H](OC(C)=O)[C@H]2OC(C)=O)nn1)[C@@H]1CC[C@]2(COC(C)=O)CC[C@]3(C)[C@H](CC[C@@H]4[C@@]5(C)CC[C@H](OC(C)=O)C(C)(C)[C@@H]5CC[C@]43C)[C@@H]12
- viability at 24 h, 0.1 µM [1]: 115%
- viability at 24 h, 1 µM [2]: 138%
- viability at 24 h, 10 µM [3]: 128%
- viability at 1 µM [8]: 91.7%
- Activity [11]: 62.6%
- Activity [12]: 74.5%
- Activity [13]: 81.8%
- Activity [14]: 79.5%
- Activity [15]: 89.2%
- fold change (FC) [16]: 0.75
- fold change (FC) [17]: 1.2
- Activity [18]: Active
- Activity [4]: 75.1%
- Activity [5]: 82.2%
- Activity [6]: 90.9%
- Activity [19]: 74.7%
- Activity [20]: 77.2%
- inhibition [21]: Active
- inhibition [22]: Dose-Dependent Effect
- Activity [23]: Active

SMILES: CC1(C)CC[C@]23CC[C@]4(C)[C@H](CC[C@@H]5[C@@]6(C)CC(C#N)=C(O)C(C)(C)[C@@H]6CC[C@]54C)[C@H]2[C@H]1OC3
- viability at 24 h, 0.1 µM [1]: 93.1%
- viability at 24 h, 1 µM [2]: 93.8%
- viability at 24 h, 10 µM [3]: 98.8%

SMILES: C=C(C(=O)O)[C@@H]1CC[C@]2(COC(C)=O)CC[C@]3(C)[C@H](CC[C@@H]4[C@@]5(C)CC[C@H](OC(C)=O)C(C)(C)[C@@H]5CC[C@]43C)[C@@H]12
- viability at 24 h, 0.1 µM [1]: 102%
- viability at 24 h, 1 µM [2]: 102%
- viability at 24 h, 10 µM [3]: 11.6%

SMILES: C=C(C(=O)OCc1cn([C@@H]2O[C@H](COC(C)=O)[C@H](OC(C)=O)[C@H](OC(C)=O)[C@H]2OC(C)=O)nn1)[C@@H]1CC[C@]2(COC(C)=O)CC[C@]3(C)[C@H](CC[C@@H]4[C@@]5(C)CC[C@H](OC(C)=O)C(C)(C)[C@@H]5CC[C@]43C)[C@@H]12
- viability at 24 h, 0.1 µM [1]: 140%
- viability at 24 h, 1 µM [2]: 139%
- viability at 24 h, 10 µM [3]: 130%
- viability at 1 µM [8]: 90.9%
- Activity [11]: 68.7%

SMILES: C/C=C/C[C@@H](C)[C@@H](O)[C@H]1C(=O)N[C@@H](CC)C(=O)N(C)CC(=O)N(C)[C@@H](CC(C)C)C(=O)N[C@@H](C(C)C)C(=O)N(C)[C@@H](CC(C)C)C(=O)N[C@@H](C)C(=O)N[C@H](C)C(=O)N(C)[C@@H](CC(C)C)C(=O)N(C)[C@@H](CC(C)C)C(=O)N(C)[C@@H](C(C)C)C(=O)N1C [CYCLOSPORINE]
- viability at 0.5 µM [24]: 99.3%
- Activity [25]: 74.5%
- fold change (FC) [26]: 0.67
- Activity [27]: 89.1%

SMILES: COC(=O)[C@]12CCC(C)(C)C[C@@H]1[C@H]1C=C[C@@H]3[C@@]4(C)CC(SC#N)C(=O)C(C)(C)[C@@H]4CC[C@@]3(C)[C@]1(C)CC2 (stereo partly drawn)
- viability at 24 h, 0.1 µM [1]: 100%
- viability at 24 h, 1 µM [2]: 107%
- viability at 24 h, 10 µM [3]: 99.2%
